Structures are written as SMILES. Numbered stars: 1 amine (or outer) side, 2 acyl side, 3 side chain; on linkers, the order of the positions; unused ones are H or OH. Square brackets hold non-standard residues; d marks the D form. Peptide text beside a SMILES is read from it. NMeF = CN[C@@H](Cc1ccccc1)C(=O)O; Suc = O=C(CCC(=O)[*:2])[*:1]

The target in assay [1] is T1, NK3R (Mus musculus, UniProt P47937).
T1 construct: from tissue; host or cells: whole living mice (in vivo behavioural tests)
T1 sequence (P47937 1-452): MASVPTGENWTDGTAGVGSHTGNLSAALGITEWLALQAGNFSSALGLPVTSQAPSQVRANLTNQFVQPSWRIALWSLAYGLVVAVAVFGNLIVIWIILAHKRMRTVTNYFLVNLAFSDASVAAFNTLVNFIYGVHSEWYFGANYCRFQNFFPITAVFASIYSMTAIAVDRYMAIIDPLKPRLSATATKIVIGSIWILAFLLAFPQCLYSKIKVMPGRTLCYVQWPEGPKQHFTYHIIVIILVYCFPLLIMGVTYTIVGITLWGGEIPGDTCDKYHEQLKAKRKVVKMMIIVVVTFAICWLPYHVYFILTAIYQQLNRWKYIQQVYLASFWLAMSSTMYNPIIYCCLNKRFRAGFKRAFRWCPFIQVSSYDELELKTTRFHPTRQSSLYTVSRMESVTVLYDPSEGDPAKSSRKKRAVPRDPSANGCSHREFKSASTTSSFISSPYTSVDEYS
The experiment in a line: Cocaine-CPP with systemic injection of senktide. The assay is classed as in vivo, mice. The note with it: systemic injection of senktide vs saline; CPP score. As to the method: (§1) FIGS. 12A-12B show systemic injection of a TacR3 agonist, senktide, reduced cocaine-conditioned place preference and cocaine-induced locomotion. […] The CPP scores were calculated by subtracting the time spent in pre-conditioning phase from the time spent in post-conditioning phase, *, […], unpaired t-test.
A two-compartment CPP chamber was used with one compartment with grid rod style floor and the other with mesh style floor (Med Associates). Chamber size is 25×19×17 cm (L×D×H). Mice trajectories were tracked by infra-red photobeam detectors, and the travel distance and the duration the mice spent in the two compartments were recorded. The CPP protocol consists of three sessions that include pre-conditioning, conditioning, and post-conditioning.
The Tac2 gene encodes the neuropeptide neurokinin B (NKB). NKB has high affinity for neurokinin 3 receptor (NK3R, encoded by the TacR3 gene). The NKB-NK3R (ligand-receptor) signal pathway is functional in both central and peripheral nervous systems and have been implicated in diverse physiological processes, such as reproduction, inflammation, and psychiatric disorders^55. To evaluate the functional relevance of the NKB-NK3R pathway in addiction, an NK3R agonist, senktide, was systemically administered to mice, and then addiction-related behavioral tests were performed. […]

Assay [2] has as its target T1, NK3R. The experiment in a line: Cocaine-induced locomotion assay with i.p. injection of senktide. Conditions: i.p. injection of senktide vs saline; distance traveled in 30-minute post-treatment period. The format is in vivo, mice. On the procedure: as §1
The basal level of locomotion as well as cocaine-induced change of locomotor activity were assessed in the open field arena the same as the OFT. For chemogenetics experiments, 20 minutes after administration of either saline or CNO, mice were individually placed in the center of the test chamber, triggering the infra-red tracking system to record locomotor activity, as measured by the number of beam breaks. For optogenetic experiments, the total duration of the behavioral test was 30 minutes, which was divided into […] 5×6-min epochs (with 3-minutes laser on. 3-minutes laser off, respectively). Different groups of mice were balanced across the 8 chambers to avoid potential environmental bias.
The Tac2 gene encodes the neuropeptide neurokinin B (NKB). NKB has high affinity for neurokinin 3 receptor (NK3R, encoded by the TacR3 gene). The NKB-NK3R (ligand-receptor) signal pathway is functional in both central and peripheral nervous systems and have been implicated in diverse physiological processes, such as reproduction, inflammation, and psychiatric disorders^55. […]

On to `CSCC[C@H](NC(=O)[C@H](CC(C)C)NC(=O)CNC(=O)[C@H](Cc1ccccc1)N(C)C(=O)[C@H](Cc1ccccc1)NC(=O)[C@H](CC(=O)O)NC(=O)CCC(=O)O)C(N)=O` [senktide, Suc-Asp-Phe-(Me-Phe)-Gly-Leu-Met] (Suc-DF[NMeF]GLM-NH2), for which the cocaine-conditioned place preference entry in assay [1] is recorded as “reduced”. In assay [2], the cocaine-induced locomotion entry is on record as “reduced”.
